Experiments:
barnyardgrass [1] = assay: Test B flooded paddy test; assay type: in vivo, Echinochloa crus-galli; conditions: 1000 g ai/ha, visual rating, scale 0 to 100 (0 no effect, 100 complete control), 13 to 15 days
In short: (§1)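 After treating 2-leaf paddy plants or 2–18 cm postemergence plants (1 to 4 leaves) with formulated chemical, researchers kept them in a greenhouse for 13–15 days. Effects were judged visually versus controls: 0 indicates none, 100 total control.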

giant foxtail [2] = assay: Test A pre-/postemergence herbicide test; assay type: in vivo, Setaria faberi
In short: (§2)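 Plants are held in greenhouse about ten days after treatment, then compared with untreated controls and scored 0 (no effect) to 100 (complete control). Preemergence dosing is a directed soil spray on sown sandy loam; postemergence dosing is spray to runoff at 2–10 cm height.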

giant foxtail [3] = assay: Test B pre-/postemergence herbicide test; assay type: in vivo, Setaria faberi; conditions: for Foxtail, Giant plant response rating: postemergence, visual rating, scale 0 (no effect) to 100 (complete control)
In short: (§3)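 Response was scored visually 13 to 15 days after treatment against untreated greenhouse controls, 0 meaning no effect and 100 complete control. Formulations (solvent mixture plus surfactant) went onto soil after planting, onto foliage of 1- to 4-leaf plants, and onto 2-leaf plants in a flooded paddy set including rice and barnyardgrass.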

corn = assay: Test B pre-/postemergence herbicide test; assay type: in vivo, Zea mays; conditions: for Corn plant response rating: postemergence, visual rating, scale 0 (no effect) to 100 (complete control)
In short: as §3

lambsquarters = assay: Test B pre-/postemergence herbicide test; assay type: in vivo, Chenopodium album; conditions: for Lambsquarters plant response rating: postemergence, visual rating, scale 0 (no effect) to 100 (complete control)
In short: as §3

cocklebur = assay: Test B pre-/postemergence herbicide test; assay type: in vivo, Xanthium strumarium; conditions: for Cocklebur plant response rating: postemergence, visual rating, scale 0 (no effect) to 100 (complete control)
In short: (§4)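 Flooded paddy rice and barnyardgrass were treated at the 2-leaf stage; upland plantings received compound either on sown seed or on 1- to 4-leaf seedlings. All were kept 13–15 days in a greenhouse and scored visually, 0–100, relative to untreated plants.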

redroot pigweed = assay: Test A pre-/postemergence herbicide test; assay type: in vivo, Amaranthus retroflexus
In short: as §2

Surinam grass = assay: Test B pre-/postemergence herbicide test; assay type: in vivo, Urochloa decumbens; conditions: for Surinam Grass plant response rating: postemergence, visual rating, scale 0 (no effect) to 100 (complete control)
In short: as §3

wild oat = assay: Test B postemergence herbicide test; assay type: in vivo, Avena fatua; conditions: postemergence, visual rating, scale 0 (no effect) to 100 (complete control)
In short: (§5)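 Formulated test chemicals went onto postemergence plants measuring 2 to 18 cm, at one to four leaves. For the paddy assay, species had reached two leaves. Scoring took place 13–15 days later by eye, relative to untreated plants, using 0 for no effect up to 100 for full control.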

barnyardgrass [4] = assay: Test A pre-/postemergence herbicide test; assay type: in vivo, Echinochloa crus-galli
In short: as §2

[5] = system: small flower umbrella sedge; assay: Test B flooded paddy test; assay type: in vivo, Cyperus difformis; conditions: 1000 g ai/ha, visual rating, scale 0 to 100 (0 no effect, 100 complete control), 13 to 15 days
In short: as §1

ducksalad = assay: Test B flooded paddy test; assay type: in vivo, Heteranthera limosa; conditions: 1000 g ai/ha, visual rating, scale 0 to 100 (0 no effect, 100 complete control), 13 to 15 days
In short: as §1

velvetleaf [6] = assay: Test A pre-/postemergence herbicide test; assay type: in vivo, Abutilon theophrasti
In short: as §2

morningglory [7] = assay: Test B pre-/postemergence herbicide test; assay type: in vivo, Ipomoea coccinea; conditions: for Morningglory plant response rating: postemergence, visual rating, scale 0 (no effect) to 100 (complete control)
In short: as §4

wheat = assay: Test B postemergence herbicide test; assay type: in vivo, Triticum aestivum; set-up: key to Wheat plant response rating: 0 = no effect, 100 = complete control; conditions: postemergence, visual rating, scale 0 (no effect) to 100 (complete control)
In short: as §5

large crabgrass [8] = assay: Test A pre-/postemergence herbicide test; assay type: in vivo, Digitaria sanguinalis
In short: as §2

blackgrass = assay: Test B postemergence herbicide test; assay type: in vivo, Alopecurus myosuroides; conditions: postemergence, visual rating, scale 0 (no effect) to 100 (complete control)
In short: as §1

morningglory [9] = assay: Test A pre-/postemergence herbicide test; assay type: in vivo, Ipomoea spp.
In short: as §2

large crabgrass [10] = assay: Test B pre-/postemergence herbicide test; assay type: in vivo, Digitaria sanguinalis; conditions: for Crabgrass, Large plant response rating: postemergence, visual rating, scale 0 (no effect) to 100 (complete control)
In short: as §3

barnyardgrass [11] = assay: Test B pre-/postemergence herbicide test; assay type: in vivo, Echinochloa crus-galli; conditions: for Barnyardgrass plant response rating: postemergence, visual rating, scale 0 (no effect) to 100 (complete control)
In short: as §4

rice = assay: Test B flooded paddy test; assay type: in vivo, Oryza sativa; conditions: 1000 g ai/ha, visual rating, scale 0 to 100 (0 no effect, 100 complete control), 13 to 15 days
In short: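 Postemergence plants were sprayed with formulated test chemicals at 2 to 18 cm height (1- to 4-leaf stage); paddy species were grown to the 2-leaf stage. After 13 to 15 days in a greenhouse, injury was rated visually against untreated controls on a 0–100 scale (0 = no effect, 100 = complete control).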

pigweed = assay: Test B pre-/postemergence herbicide test; assay type: in vivo, Amaranthus retroflexus; conditions: for Pigweed plant response rating: postemergence, visual rating, scale 0 (no effect) to 100 (complete control)
In short: as §3

velvetleaf [12] = assay: Test B pre-/postemergence herbicide test; assay type: in vivo, Abutilon theophrasti; conditions: for Velvetleaf plant response rating: postemergence, visual rating, scale 0 (no effect) to 100 (complete control)
In short: as §3

[13] = Postemergence, 500 g ai/ha, 0 to 100 scale, 0 no effect, 100 complete control
[14] = Postemergence, 2000 g ai/ha, 0 to 100 scale, 0 no effect, 100 complete control
[15] = Preemergence, 2000 g ai/ha, visual rating, 0 to 100 scale (0 no effect, 100 complete control)
[16] = preemergence, 500 g ai/ha, visual injury, 0 to 100 scale (0 no effect, 100 complete control)
[17] = 125 g ai/ha, 0 = no effect, 100 = complete control, preemergence
[18] = 500 g ai/ha, visual rating 0-100, 0 no effect, 100 complete control, preemergence

CC(=NO)c1cccc(NC(=O)c2cn(C(C)C)nc2C)c1 [Compound 180]
Barnyardgrass plant response rating (barnyardgrass [1]): 20 | Foxtail, Giant plant response rating (giant foxtail [2]; [13]): 15 | Plant response rating, Foxtail, Giant (giant foxtail [2]; [14]): 20 | Foxtail, Giant plant response rating (giant foxtail [2]; [15]): 10 | Foxtail, Giant plant response rating (giant foxtail [2]; [16]): 0 | Foxtail, Giant plant response rating (0 to 100 scale) (giant foxtail [3]; [17]): 0 | Plant response rating, Foxtail, Giant (giant foxtail [3]; [18]): 0 | Foxtail, Giant plant response rating (giant foxtail [3]; 125 g ai/ha): 0 | Foxtail, Giant plant response rating (giant foxtail [3]; 500 g ai/ha): 0 | Corn plant response rating (0 to 100 scale) (corn; [17]): 0 | Plant response rating, Corn (corn; [18]): 0 | Corn plant response rating (corn; 125 g ai/ha): 0 | Corn plant response rating (corn; 500 g ai/ha): 0 | Lambsquarters plant response rating (0 to 100 scale) (lambsquarters; [17]): 0 | Plant response rating, Lambsquarters (lambsquarters; [18]): 0 | Lambsquarters plant response rating (lambsquarters; 125 g ai/ha): 0 | Lambsquarters plant response rating (lambsquarters; 500 g ai/ha): 0 | Cocklebur plant response rating (0 to 100 scale) (cocklebur; [17]): 0 | Plant response rating, Cocklebur (cocklebur; [18]): 0 | Cocklebur plant response rating (cocklebur; 125 g ai/ha): 0 | Cocklebur plant response rating (cocklebur; 500 g ai/ha): 0 | Pigweed plant response rating (redroot pigweed; [13]): 30 | Plant response rating, Pigweed (redroot pigweed; [14]): 95 | Pigweed plant response rating (redroot pigweed; [15]): 90 | Pigweed plant response rating (redroot pigweed; [16]): 0 | Surinam Grass plant response rating (0 to 100 scale) (Surinam grass; [17]): 0 | Plant response rating, Surinam Grass (Surinam grass; [18]): 0 | Surinam Grass plant response rating (Surinam grass; 125 g ai/ha): 0 | Surinam Grass plant response rating (Surinam grass; 500 g ai/ha): 0 | Oat, Wild plant response rating (wild oat; 125 g ai/ha): 0 | Oat, Wild plant response rating (wild oat; 500 g ai/ha): 0 | Barnyardgrass plant response rating (barnyardgrass [4]; [13]): 20 | Plant response rating, Barnyardgrass (barnyardgrass [4]; [14]): 30 | Barnyardgrass plant response rating (barnyardgrass [4]; [15]): 0 | Barnyardgrass plant response rating (barnyardgrass [4]; [16]): 0 | Sedge, Umbrella plant response rating [5]: 0 | Ducksalad plant response rating (ducksalad): 20 | Velvetleaf plant response rating (velvetleaf [6]; [13]): 10 | Plant response rating, Velvetleaf (velvetleaf [6]; [14]): 15 | Velvetleaf plant response rating (velvetleaf [6]; [15]): 15 | Velvetleaf plant response rating (velvetleaf [6]; [16]): 0 | Morningglory plant response rating (0 to 100 scale) (morningglory [7]; [17]): 0 | Plant response rating, Morningglory (morningglory [7]; [18]): 0 | Morningglory plant response rating (morningglory [7]; 125 g ai/ha): 0 | Morningglory plant response rating (morningglory [7]; 500 g ai/ha): 0 | Wheat plant response rating (wheat; 125 g ai/ha): 0 | Wheat plant response rating (wheat; 500 g ai/ha): 0 | Crabgrass, Large plant response rating (large crabgrass [8]; [13]): 20 | Plant response rating, Crabgrass, Large (large crabgrass [8]; [14]): 35 | Crabgrass, Large plant response rating (large crabgrass [8]; [15]): 50 | Crabgrass, Large plant response rating (large crabgrass [8]; [16]): 10 | Blackgrass plant response rating (blackgrass; 125 g ai/ha): 0 | Blackgrass plant response rating (blackgrass; 500 g ai/ha): 0 | Morningglory plant response rating (morningglory [9]; [13]): 10 | Plant response rating, Morningglory (morningglory [9]; [14]): 15 | Morningglory plant response rating (morningglory [9]; [15]): 10 | Morningglory plant response rating (morningglory [9]; [16]): 0 | Crabgrass, Large plant response rating (0 to 100 scale) (large crabgrass [10]; [17]): 0 | Plant response rating, Crabgrass, Large (large crabgrass [10]; [18]): 0 | Crabgrass, Large plant response rating (large crabgrass [10]; 125 g ai/ha): 0 | Crabgrass, Large plant response rating (large crabgrass [10]; 500 g ai/ha): 0 | Barnyardgrass plant response rating (0 to 100 scale) (barnyardgrass [11]; [17]): 0 | Plant response rating, Barnyardgrass (barnyardgrass [11]; [18]): 0 | Barnyardgrass plant response rating (barnyardgrass [11]; 125 g ai/ha): 0 | Barnyardgrass plant response rating (barnyardgrass [11]; 500 g ai/ha): 0 | Rice plant response rating (rice): 0 | Pigweed plant response rating (0 to 100 scale) (pigweed; [17]): 0 | Plant response rating, Pigweed (pigweed; [18]): 0 | Pigweed plant response rating (pigweed; 125 g ai/ha): 0 | Pigweed plant response rating (pigweed; 500 g ai/ha): 0 | Velvetleaf plant response rating (0 to 100 scale) (velvetleaf [12]; [17]): 0 | Plant response rating, Velvetleaf (velvetleaf [12]; [18]): 0 | Velvetleaf plant response rating (velvetleaf [12]; 125 g ai/ha): 0 | Velvetleaf plant response rating (velvetleaf [12]; 500 g ai/ha): 0
